Literature values in patent publication US20140316333A1, “DISSOLVING SOLID SOLUTION PERFORATOR PATCH FOR MIGRAINE TREATMENT” (priority 2011, published 2014).

Conditions: oral dosage

**Q.** With CN1C[C@H](C(=O)N[C@]2(C)O[C@@]3(O)[C@@H]4CCCN4C(=O)[C@H](Cc4ccccc4)N3C2=O)C[C@@H]2c3cccc4[nH]cc(c34)C[C@H]21 [DHE, dihydroergotamine] as the compound, how does the “time to have efficacy for reducing migraine headache” value read?
**A.** 2 to 3 h

**Q.** What about the “active unchanged drug that reaches the blood stream” value (about 20-30 mg, estimated) of the same compound?
**A.** 2-10%
